Experimental data as given in patent US20230305016A1, “TEST KIT AND METHOD OF DETERMINING TRYPTOPHAN IN EXTRACTS OF FAECAL SAMPLES” (IMMUNDIAGNOSTIK AG, priority 2020, published 2023).
Where two headings read alike, the source gives them in different places.

How the values were obtained:
[1] = rat, in vivo; cited from earlier work
[2] = tested on: depression; settings: cited from earlier work; for side effects: adults; for effective in alleviating depression in adults: versus placebo
[3] = tested on: GLUT5; settings: mice; duodenum and adipose tissue; cited from earlier work
[4] = parameters: key to Oxidation into 14CO2: x: Detected but not quantified; xx: Detected but not quantified; settings: rats, cited from earlier work
[5] = carboxyl group; cited from earlier work
[6] = Alkaline hydrolyzation of spiked fructose-tryptophan Amadori product in stool extract; format: physicochemical; settings: 10 M NaOH, 100° C., 20 min
Experimental: 5 mg fructose-tryptophan Amadori product (MW=366.37 Da) was dissolved in 2.27 ml aqua dest. (6 mM/L). The concentration of peptide groups in this solution was determined to be 4.36 mM/L using a BCA test (Smith P K et al, Measurement of protein using bicinchoninic acid, in: Analytical Biochemistry […], 150(1):76-85, doi:10.1016/0003-2697(85)90442-7). This concentration was taken in the spiking experiments. The IDK® Amino Extract (dilution 1:50) was spiked with fructose-tryptophan Amadori product (not the raw stool) to achieve a target concentration the spiked fecal extract of 6 μM Amadori adduct/L. This corresponds to a spiking of 300 μM fructose-tryptophan Amadori product per gram stool as the stool was diluted 1:50 in the extract.
The spiking and hydrolyzation was carried out as follows: 70 μl stool extract were spiked with 10 μl 60 μM/L fructose-tryptophan Amadori product (as determined by BCA) and 10 μl 10 M NaOH. This solution was incubated at 100° C. for 20 min. to achieve hydrolyzation of all adducts and centrifuged at 550 rpm for removal of any precipitate. Finally, 10 μl 10 M HCl was added to neutralize (dilution 1:10) the solution prior measurement of tryptophan. In case of a spiking with fructose or tryptophan, the spiking solution contained 60 μM/L fructose and/or tryptophan each.

[7] = % of the ingested/injected material

**Q.** Which “absorption in the intestine” value [1] does the source give for NC(CCCCNCC(=O)C(O)C(O)C(O)CO)C(=O)O (stereo not shown) [ε-Lysine] here?
**A.** Its value is “NOT absorbed in the intestine”.

**Q.** Which results are given for N[C@@H](Cc1c[nH]c2ccc(O)cc12)C(=O)O [5-HTP, 5-hydroxytryptophan]?
**A.** side effects [2]: may have serious side effects; effective in alleviating depression in adults [2]: better than placebo

**Q.** Which results are given for O=S(=O)(c1ccccc1)N(CC(F)(F)F)c1ccc(C(O)(C(F)(F)F)C(F)(F)F)cc1 [T0901317]?
**A.** GLUT5 mRNA [3]: increase; GLUT5 protein levels [3]: increased

**Q.** With N[C@@H](Cc1c[nH]c2ccccc12)C(=O)O [^14C-Tryptophan] as the compound, how does the Retention in liver [4, 7] read?
**A.** The Retention in liver was 0.7%.

**Q.** What about the urinary excretion [4, 7] of the same compound?
**A.** Its urinary excretion is 60%.

**Q.** What about the “Oxidation into 14CO2” value ([4]; detected but not quantified) of the same compound?
**A.** The value was “xx^b”.

**Q.** And the urinary excretion ([4]; summary of Table 1)?
**A.** Its urinary excretion is ~60%.

**Q.** Which results are given for N[C@@H](Cc1c[nH]c2ccccc12)C(=O)O [tryptophan]?
**A.** side effects [2]: may have serious side effects; effective in alleviating depression in adults [2]: better than placebo; pKa [5]: 2,38

**Q.** Which “hydrolyzation of added adduct” value [6] does the source give for “D-fructose-L-tryptophan [fructose-tryptophan Amadori product]” here?
**A.** Its value is “hydrolyzed”.
